Assays:
[1] = target: isolated recombinant JAK1 kinase domain (Homo sapiens (Human), UniProt P23458); assay: JAK1 enzyme assay (Caliper LabChip, Ki); assay type: biochemical; conditions: read-out: JAK1 Ki
Method in brief: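 Ki derived via Morrison tight-binding model, ATP-competitive correction applied. Read-out: product/total ratio of a 5-carboxyfluorescein-tagged JAK3 peptide separated on Caliper LabChip after phosphorylation by isolated human JAK1 kinase domain (22 °C, 30 min; EDTA quench, 50 mM final).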

[2] = target: isolated recombinant JAK2 kinase domain (Homo sapiens (Human), UniProt O60674); assay: JAK2 enzyme assay (Caliper LabChip, Ki); assay type: biochemical
Sequence of isolated recombinant JAK2 kinase domain (O60674 849-1124): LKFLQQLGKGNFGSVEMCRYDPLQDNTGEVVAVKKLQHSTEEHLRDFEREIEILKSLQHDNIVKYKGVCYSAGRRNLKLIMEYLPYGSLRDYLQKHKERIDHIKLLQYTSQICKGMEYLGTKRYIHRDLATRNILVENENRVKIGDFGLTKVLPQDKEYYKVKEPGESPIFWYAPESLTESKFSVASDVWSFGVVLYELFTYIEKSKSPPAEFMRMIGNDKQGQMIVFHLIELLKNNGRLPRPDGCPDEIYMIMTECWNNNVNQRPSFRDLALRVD
Method in brief: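 Caliper LabChip readout of phosphorylated product as a fraction of total substrate, a fluorescently N-terminally labelled JAK3-derived peptide. Isolated human JAK kinase domains were incubated 30 min at 22 °C before EDTA quench (50 mM final).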

[3] = system: JAK1-dependent STAT6 phosphorylation downstream of IL-13 stimulation in BEAS-2B human bronchial epithelial cells; assay: JAK1 pathway assay in BEAS-2B cells (IL-13-pSTAT6, MSD); assay type: cell-based; conditions: Homo sapiens, BEAS-2B, BEAS-2B cells, IL-13 stimulation; read-out: IL-13 p-STAT6 BEAS-2B IC50

Sequence of isolated recombinant JAK1 kinase domain (P23458 875-1153): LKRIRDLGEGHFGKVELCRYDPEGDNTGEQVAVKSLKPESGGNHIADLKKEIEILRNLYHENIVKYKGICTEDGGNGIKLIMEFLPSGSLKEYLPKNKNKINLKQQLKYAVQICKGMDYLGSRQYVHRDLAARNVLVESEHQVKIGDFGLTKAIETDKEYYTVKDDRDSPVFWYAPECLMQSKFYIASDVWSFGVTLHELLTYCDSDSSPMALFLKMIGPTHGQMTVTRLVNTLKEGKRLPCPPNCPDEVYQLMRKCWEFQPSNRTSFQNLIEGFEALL

For `C#Cc1ccc(OC2(C)CN(C3CCC(CC#N)(n4cc(C(N)=O)c(NC(=O)C5CC5)n4)CC3)C2)cc1` (stereo not drawn) [Example 294, 1-(1-(Cyanomethyl)-4-(3-(4-ethynylphenoxy)-3-methylazetidin-1-yl)cyclohexyl)-3-(cyclopropanecarboxamido)-1H-pyrazole-4-carboxamide], the Ki [1] was 0.74 nM, the Ki [2] was 1.1 nM and the IC50 [3] was 47 nM.

`CC1(Oc2ccc(C(F)(F)F)cc2)CN(C2CCC(CC#N)(n3cc(C(N)=O)c(NC(=O)C4CC4)n3)CC2)C1` (stereo not drawn) [Example 295, 1-[1-(cyanomethyl)-4-[3-methyl-3-[4-(trifluoromethyl)phenoxy]azetidin-1-yl]cyclohexyl]-3-(cyclopropanecarbonylamino) pyrazole-4-carboxamide] was tested, and the Ki [1] was 2 nM, the Ki [2] was 2.9 nM and the IC50 [3] was 85 nM.

For `COC(=O)Nc1nn(C2(CC#N)CCN(Cc3cc(O)c(Br)cc3Cl)CC2F)cc1C(N)=O` (stereo not drawn) [Example 296, methyl N-[1-[1-[(4-bromo-2-chloro-5-hydroxy-phenyl)methyl]-4-(cyanomethyl)-3-fluoro-4-piperidyl]-4-carbamoyl-pyrazol-3-yl]carbamate], the Ki [1] was 0.56 nM, the Ki [2] was 0.59 nM and the IC50 [3] was 52 nM.

In the case of `C#Cc1ccc(CN2CCC(CC#N)(n3cc(C(N)=O)c(NC(=O)OC)n3)C(F)C2)c(F)c1` (stereo not drawn) [Example 297, methyl N-[4-carbamoyl-1-[4-(cyanomethyl)-1-[(4-ethynyl-2-fluoro-phenyl)methyl]-3-fluoro-4-piperidyl]pyrazol-3-yl]carbamate], the Ki [1] is reported as 0.53 nM, the Ki [2] is reported as 0.76 nM and the IC50 [3] is reported as 62 nM.

Compound `CC#Cc1ccc(CN2CCC(CC#N)(n3cc(C(N)=O)c(NC(=O)OC)n3)C(F)C2)cc1` (stereo not drawn) [Example 298, Methyl (4-carbamoyl-1-(4-(cyanomethyl)-3-fluoro-1-(4-(prop-1-yn-1-yl)benzyl)piperidin-4-yl)-1H-pyrazol-3-yl)carbamate] has a Ki [1] of 0.6 nM, a Ki [2] of 0.58 nM and an IC50 [3] of 29 nM.

Compound `N#CCC1(n2cc(C(N)=O)c(NC(=O)C3CC3)n2)CCN(Cc2ccc(C#CC3CC3)cc2)CC1` [Example 299, 1-(4-(Cyanomethyl)-1-(4-(cyclopropylethynyl)benzyl)piperidin-4-yl)-3-(cyclopropanecarboxamido)-1H-pyrazole-4-carboxamide] has a Ki [1] of 1.1 nM, a Ki [2] of 3 nM and an IC50 [3] of 85 nM.

With `Cc1ccc(OC2(C)CN([C@H]3CC[C@](CC#N)(n4cc(C(N)=O)c(NC(=O)C5CC5)n4)CC3)C2)cc1` [Example 300, 1-[1-(cyanomethyl)-4-[3-methyl-3-(4-methylphenoxy)azetidin-1-yl]cyclohexyl]-3-(cyclopropanecarbonylamino) pyrazole-4-carboxamide] the Ki [1] was 1.5 nM, the Ki [2] was 1.3 nM and the IC50 [3] was 43 nM.

For `CCC1(n2cc(C(N)=O)c(Nc3ccc(S(=O)(=O)C(F)F)cc3)n2)CCN(Cc2cc(O)ccc2F)CC1` [Example 301, 3-((4-((Difluoromethyl)sulfonyl)phenyl)amino)-1-(4-ethyl-1-(2-fluoro-5-hydroxybenzyl)piperidin-4-yl)-1H-pyrazole-4-carboxamide], the Ki [1] was 1.5 nM, the Ki [2] was 2 nM and the IC50 [3] was 100 nM.

In the case of `CC[C@]1(n2cc(C(N)=O)c(Nc3ccc(S(C)(=O)=O)cc3)n2)CC[C@H](N2CC(C(F)(F)F)C2)CC1` [Example 302, 1-((1S,4S)-1-ethyl-4-(3-(trifluoromethyl)azetidin-1-yl)cyclohexyl)-3-((4-(methylsulfonyl)phenyl)amino)-1H-pyrazole-4-carboxamide], the Ki [1] is reported as 0.94 nM, the Ki [2] is reported as 2 nM and the IC50 [3] is reported as 43 nM.

`CCOP(=O)(OCC)c1ccc(Nc2nn([C@]3(CC#N)CC[C@@H](N4CC(C(F)(F)F)C4)CC3)cc2C(N)=O)cc1` [Example 303, Diethyl (4-((4-carbamoyl-1-((1R,4R)-1-(cyanomethyl)-4-(3-(trifluoromethyl)azetidin-1-yl)cyclohexyl)-1H-pyrazol-3-yl)amino)phenyl)phosphonate] was tested, and the Ki [1] was 0.39 nM, the Ki [2] was 0.66 nM and the IC50 [3] was 34 nM.

For `CCC1(n2cc(C(N)=O)c(Nc3ccc(S(=O)(=O)C(F)F)cc3)n2)CCN(C(=O)CC#N)CC1` [Example 304], the Ki [1] was 0.49 nM, the Ki [2] was 2.8 nM and the IC50 [3] was 220 nM.

Reference: patent US11731943B2, “Therapeutic compounds, compositions and methods of use thereof” (priority 2016, dated 2023)
